Reference: PMC3407035 (Journal of enzyme inhibition and medicinal chemistry, 2011)

Experiments:
[1] = target: T1, Human GGT1 (gamma-glutamyl transpeptidase, GGT) (Homo sapiens, UniProt P19440); assay: pNA release at […] nm, hydrolysis; format: biochemical; settings: read-out: D-GpNA Minus acceptor; no acceptor, pH 7.4, 37 °C
[2] = target: T1, Human GGT1 (gamma-glutamyl transpeptidase, GGT); assay: pNA release at […] nm, transpeptidation; format: biochemical

T1 sequence (P19440 27-380 limits assumed): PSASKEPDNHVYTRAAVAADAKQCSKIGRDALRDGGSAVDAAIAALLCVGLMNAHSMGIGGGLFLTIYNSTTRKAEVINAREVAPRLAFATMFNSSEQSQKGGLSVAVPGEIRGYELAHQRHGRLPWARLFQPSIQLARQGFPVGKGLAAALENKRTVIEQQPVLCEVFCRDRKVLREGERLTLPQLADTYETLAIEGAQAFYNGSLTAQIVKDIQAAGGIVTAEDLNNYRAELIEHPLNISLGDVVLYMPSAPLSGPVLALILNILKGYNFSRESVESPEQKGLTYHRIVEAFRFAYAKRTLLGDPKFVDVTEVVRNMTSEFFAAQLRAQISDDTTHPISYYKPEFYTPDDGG
T1 sequence (P19440 381-569 limits assumed): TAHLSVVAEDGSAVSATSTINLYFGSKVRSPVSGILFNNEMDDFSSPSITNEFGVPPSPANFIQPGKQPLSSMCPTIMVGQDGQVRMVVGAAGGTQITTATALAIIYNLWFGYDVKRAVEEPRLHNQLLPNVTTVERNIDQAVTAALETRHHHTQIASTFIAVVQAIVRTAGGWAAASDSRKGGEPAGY

| SMILES | Km [1] [µM] | Ki [2] [µM] |
| --- | --- | --- |
| N[C@H](CCC(=O)Nc1ccc([N+](=O)[O-])cc1)C(=O)O [D-GpNA] | 160 ± 20 | – |
| COc1ccc(Cc2nnc(NS(=O)(=O)c3cccc4ccccc34)s2)cc1 [compound 6, Compound 6] | – | 45.7 ± 3.4 |
| COc1ccc(Cc2nnc(NS(=O)(=O)c3ccc(Cl)cc3)s2)cc1 [compound 10, Compound 10] | – | 13.4 ± 0.8 |
| Cc1ccc(Cc2nnc(NS(=O)(=O)c3ccc([N+](=O)[O-])cc3)s2)cc1 [compound 17, Compound 17] | – | 56.9 ± 8.3 |
| Cc1cccc(Cc2nnc(NS(=O)(=O)c3ccc([N+](=O)[O-])cc3)s2)c1 [compound 18, Compound 18] | – | 34.3 ± 0.9 |
